In patent publication US12077503B2, “Substituted cyclic amides and their use as herbicides” (FMC CORPORATION, priority 2015, dated 2024):
Like-named read-outs stand apart in the source and are kept apart here.

How the values were obtained:
Format in all cases: in vivo
corn (Zea mays) = assay: Test A postemergence; conditions: Zea mays, post-emergence, 240 h; for plant injury at 125 g/ha / plant injury at 500 g/ha: postemergence, read-out: Corn plant response rating; for plant injury at 125 g/ha: visual injury on 0 to 100 scale (0 no effect, 100 complete control), approx. 10 d; for plant injury at 500 g/ha: 500 g ai/ha, 0 to 100 scale, 0 is no effect, 100 is complete control
Procedure, shortened: (§1)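 Visual injury scores from 0, no effect, to 100, complete control, were assigned versus untreated controls roughly 10 d after treatment in the greenhouse. Test chemicals, formulated with surfactant in a non-phytotoxic solvent, were applied to planted seeds as a preemergence soil spray or postemergence to one- to two-leaf plants 2 to 10 cm tall, in loam–sand soil.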

[1] = test system: blackgrass (Alopecurus myosuroides); assay: Test A postemergence; conditions: Alopecurus myosuroides, post-emergence, 240 h; for pest or weed control at 125 g/ha: 125 g ai/ha; for pest or weed control at 500 g/ha: 500 g ai/ha, 0 to 100 scale, 0 is no effect, 100 is complete control
Procedure, shortened: as §1

Kochia (Kochia scoparia) = assay: Test A postemergence; conditions: Bassia scoparia, post-emergence, 240 h; for pest or weed control at 125 g/ha: 125 g ai/ha; for pest or weed control at 500 g/ha: 500 g ai/ha, 0 to 100 scale, 0 is no effect, 100 is complete control
Procedure, shortened: as §1

[2] = test system: ragweed (common ragweed, Ambrosia elatior); assay: Test A postemergence; conditions: Ambrosia artemisiifolia, post-emergence, 240 h; for pest or weed control at 125 g/ha: 125 g ai/ha; for pest or weed control at 500 g/ha: 500 g ai/ha, 0 to 100 scale, 0 is no effect, 100 is complete control
Procedure, shortened: as §1

[3] = test system: Galium (catchweed bedstraw, Galium aparine); assay: Test A postemergence; conditions: Galium, post-emergence, 240 h; for pest or weed control at 125 g/ha: 125 g ai/ha; for pest or weed control at 500 g/ha: 500 g ai/ha, 0 to 100 scale, 0 is no effect, 100 is complete control
Procedure, shortened: as §1

[4] = test system: pigweed (Amaranthus retroflexus); assay: Test A postemergence; conditions: Amaranthus retroflexus, post-emergence, 240 h; for pest or weed control at 125 g/ha: 125 g ai/ha; for pest or weed control at 500 g/ha: 500 g ai/ha, 0 to 100 scale, 0 is no effect, 100 is complete control
Procedure, shortened: as §1

[5] = test system: wheat (Triticum aestivum); assay: Test A postemergence; conditions: Triticum aestivum, post-emergence, 240 h; for plant injury at 125 g/ha: 125 g ai/ha; for plant injury at 500 g/ha: 500 g ai/ha, 0 to 100 scale, 0 is no effect, 100 is complete control
Procedure, shortened: as §1

[6] = test system: giant foxtail (Setaria faberii); assay: Test A postemergence; conditions: Setaria faberi, post-emergence, 240 h; for pest or weed control at 125 g/ha: 125 g ai/ha; for pest or weed control at 500 g/ha: 500 g ai/ha, 0 to 100 scale, 0 is no effect, 100 is complete control
Procedure, shortened: as §1

[7] = test system: barnyardgrass (Echinochloa crus-galli); assay: Test A postemergence; conditions: Echinochloa crus-galli, post-emergence, 240 h; for pest or weed control at 125 g/ha: 125 g ai/ha; for pest or weed control at 500 g/ha: 500 g ai/ha, 0 to 100 scale, 0 is no effect, 100 is complete control
Procedure, shortened: as §1

[8] = test system: ryegrass, Italian (Italian ryegrass, Lolium multiflorum); assay: Test A postemergence; conditions: Lolium multiflorum, post-emergence, 240 h; for pest or weed control at 125 g/ha: 125 g ai/ha; for pest or weed control at 500 g/ha: 500 g ai/ha, 0 to 100 scale, 0 is no effect, 100 is complete control
Procedure, shortened: as §1

rice (Oryra sativa) = assay: Test B flooded paddy test; conditions: Oryza sativa, 250 g ai/ha, Flood, read-out: Rice plant response rating
Procedure, shortened: (§2)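 Compound goes directly into floodwater once pots are flooded 3 cm above soil, targeting plants at two leaves; the water depth is then held for the test duration. Plants sit 13–15 d in a greenhouse and are rated visually, 100 denoting complete control.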

[9] = test system: sedge, umbrella (small-flower umbrella sedge, Cyperus difformis); assay: Test B flooded paddy test; conditions: Cyperus difformis, 250 g ai/ha, Flood, read-out: Sedge, Umbrella plant response rating
Procedure, shortened: as §2

[10] = test system: ducksalad (Heteranthera limosa); assay: Test B flooded paddy test; conditions: Heteranthera limosa, 250 g ai/ha, Flood, read-out: Ducksalad plant response rating
Procedure, shortened: as §2

[11] = test system: barnyardgrass (Echinochloa crus-galli); assay: Test B flooded paddy test; conditions: Echinochloa crus-galli, 250 g ai/ha, Flood, read-out: Barnyardgrass plant response rating
Procedure, shortened: as §2

[12] = test system: barnyardgrass (Echinochloa crus-galli); assay: Test A preemergence; conditions: Echinochloa crus-galli, pre-emergence, 240 h; for pest or weed control at 125 g/ha: 125 g ai/ha, 0 to 100 scale where 0 is no effect and 100 is complete control; for pest or weed control at 500 g/ha: 500 g ai/ha
Procedure, shortened: as §1

[13] = postemergence, visual injury on 0 to 100 scale (0 no effect, 100 complete control), approx. 10 d, read-out: Blackgrass plant response rating
[14] = postemergence, read-out: Blackgrass plant response rating
[15] = postemergence, visual injury on 0 to 100 scale (0 no effect, 100 complete control), approx. 10 d, read-out: Kochia plant response rating
[16] = postemergence, read-out: Kochia plant response rating
[17] = postemergence, visual injury on 0 to 100 scale (0 no effect, 100 complete control), approx. 10 d, read-out: Ragweed plant response rating
[18] = postemergence, read-out: Ragweed plant response rating
[19] = postemergence, visual injury on 0 to 100 scale (0 no effect, 100 complete control), approx. 10 d, read-out: Galium plant response rating
[20] = postemergence, read-out: Galium plant response rating
[21] = postemergence, visual injury on 0 to 100 scale (0 no effect, 100 complete control), approx. 10 d, read-out: Pigweed plant response rating
[22] = postemergence, read-out: Pigweed plant response rating
[23] = postemergence, visual injury on 0 to 100 scale (0 no effect, 100 complete control), approx. 10 d, read-out: Wheat plant response rating
[24] = postemergence, read-out: Wheat plant response rating
[25] = postemergence, visual injury on 0 to 100 scale (0 no effect, 100 complete control), approx. 10 d, read-out: Foxtail, Giant plant response rating
[26] = postemergence, read-out: Foxtail, Giant plant response rating
[27] = postemergence, visual injury on 0 to 100 scale (0 no effect, 100 complete control), approx. 10 d, read-out: Barnyardgrass plant response rating
[28] = postemergence, read-out: Barnyardgrass plant response rating
[29] = postemergence, visual injury on 0 to 100 scale (0 no effect, 100 complete control), approx. 10 d, read-out: Ryegrass, Italian plant response rating
[30] = postemergence, read-out: Ryegrass, Italian plant response rating
[31] = 0 to 100 scale where 0 is no effect and 100 is complete control
[32] = preemergence, approx. 10 d, read-out: Barnyardgrass plant response rating
[33] = preemergence, visual injury rating about 10 d after treatment, 0 to 100 scale (0 no effect, 100 complete control), read-out: Barnyardgrass plant response rating
[34] = scale of 0 to 100 where 0 is no effect and 100 is complete control

| Structure (SMILES) | plant injury at 125 g/ha (corn (Zea mays); 125 g ai/ha) | plant injury at 500 g/ha (corn (Zea mays)) | pest or weed control at 125 g/ha [1, 13] | pest or weed control at 500 g/ha [1, 14] | pest or weed control at 125 g/ha (Kochia (Kochia scoparia); [15]) | pest or weed control at 500 g/ha (Kochia (Kochia scoparia); [16]) | pest or weed control at 125 g/ha [2, 17] | pest or weed control at 500 g/ha [2, 18] | pest or weed control at 125 g/ha [3, 19] | pest or weed control at 500 g/ha [3, 20] | pest or weed control at 125 g/ha [4, 21] | pest or weed control at 500 g/ha [4, 22] | plant injury at 125 g/ha [5, 23] | plant injury at 500 g/ha [5, 24] | pest or weed control at 125 g/ha [6, 25] | pest or weed control at 500 g/ha [6, 26] | pest or weed control at 125 g/ha [7, 27] | pest or weed control at 500 g/ha [7, 28] | pest or weed control at 125 g/ha [8, 29] | pest or weed control at 500 g/ha [8, 30] | other results |
| --- | --- | --- | --- | --- | --- | --- | --- | --- | --- | --- | --- | --- | --- | --- | --- | --- | --- | --- | --- | --- | --- |
| CN1C[C@H](c2cc(F)cc(F)c2)[C@@H](C(=O)Nc2ncccc2Cl)C1=O [Compound 1097] | 0% | 0% | 0% | 0% | 0% | 0% | 0% | 0% | 0% | 0% | 0% | 0% | 0% | 0% | 0% | 0% | 0% | 0% | 0% | 0% | pest or weed control at 250 g/ha (rice (Oryra sativa); [31]): 0%; pest or weed control at 250 g/ha [9, 31]: 0%; pest or weed control at 250 g/ha [10, 31]: 0%; pest or weed control at 250 g/ha [11, 31]: 0%; pest or weed control at 125 g/ha [12, 32]: 0%; pest or weed control at 500 g/ha [12, 33]: 0% |
| CN1CC[C@H](c2cccc(C(F)(F)F)c2)[C@@H](C(=O)Nc2ccccc2S(C)(=O)=O)C1=O [Compound 920] |  |  |  |  |  |  |  |  |  |  |  |  |  |  |  |  |  |  |  |  | Corn plant response rating (crop injury, 0 = no effect, 100 = complete kill) at 125 g/ha (corn (Zea mays); 125 g ai/ha, Postemergence, visual injury after approximately 10 d, 0 to 100 scale where 0 is no effect and 100 is complete control): 0%; pest or weed control at 125 g/ha ([1]; Postemergence, visual injury after approximately 10 d, 0 to 100 scale where 0 is no effect and 100 is complete control, read-out: Plant response rating, Blackgrass): 0%; pest or weed control at 125 g/ha (Kochia (Kochia scoparia); Postemergence, visual injury after approximately 10 d, 0 to 100 scale where 0 is no effect and 100 is complete control, read-out: Plant response rating, Kochia): 0%; pest or weed control at 125 g/ha ([2]; Postemergence, visual injury after approximately 10 d, 0 to 100 scale where 0 is no effect and 100 is complete control, read-out: Plant response rating, Ragweed): 0%; pest or weed control at 125 g/ha ([3]; Postemergence, visual injury after approximately 10 d, 0 to 100 scale where 0 is no effect and 100 is complete control, read-out: Plant response rating, Galium): 0%; pest or weed control at 125 g/ha ([4]; Postemergence, visual injury after approximately 10 d, 0 to 100 scale where 0 is no effect and 100 is complete control, read-out: Plant response rating, Pigweed): 0%; plant injury at 125 g/ha ([5]; Postemergence, visual injury after approximately 10 d, 0 to 100 scale where 0 is no effect and 100 is complete control, read-out: Plant response rating, Wheat): 0%; pest or weed control at 125 g/ha ([6]; Postemergence, visual injury after approximately 10 d, 0 to 100 scale where 0 is no effect and 100 is complete control, read-out: Plant response rating, Foxtail, Giant): 20%; pest or weed control at 125 g/ha ([7]; Postemergence, visual injury after approximately 10 d, 0 to 100 scale where 0 is no effect and 100 is complete control, read-out: Plant response rating, Barnyardgrass): 40%; pest or weed control at 125 g/ha ([8]; Postemergence, visual injury after approximately 10 d, 0 to 100 scale where 0 is no effect and 100 is complete control, read-out: Plant response rating, Ryegrass, Italian): 0%; pest or weed control at 250 g/ha (rice (Oryra sativa); [34]): 0%; pest or weed control at 250 g/ha [9, 34]: 0%; pest or weed control at 250 g/ha [10, 34]: 0%; pest or weed control at 250 g/ha [11, 34]: 0%; pest or weed control at 125 g/ha ([12]; preemergence, read-out: Barnyardgrass plant response rating): 70%; pest or weed control at 500 g/ha ([12]; Preemergence, visual injury vs untreated controls after approximately 10 d, read-out: Barnyardgrass plant response rating (0 to 100 scale where 0 is no effect and 100 is complete control)): 90% |
| O=C1NC[C@H](c2cscn2)[C@H]1C(=O)Nc1cccc(F)c1F [Compound 1111] | 0% | 0% | 0% | 0% | 0% | 0% | 0% | 0% | 0% | 0% | 0% | 0% | 0% | 0% | 20% | 50% | 0% | 0% | 0% | 0% | pest or weed control at 250 g/ha (rice (Oryra sativa); [31]): 0%; pest or weed control at 250 g/ha [9, 31]: 0%; pest or weed control at 250 g/ha [10, 31]: 70%; pest or weed control at 250 g/ha [11, 31]: 20%; pest or weed control at 125 g/ha [12, 32]: 0%; pest or weed control at 500 g/ha [12, 33]: 0% |
